From ChEMBL document CHEMBL3991601, “The target landscape of clinical kinase drugs” (Science, 2017) come the findings set out here.

Active and inactive are the calls of the source. On the calls: in the data inactive means no Kd found up to 30 µM.

Experiment [1] has as its target Tyrosine-protein kinase JAK2 (Homo sapiens, UniProt O60674).
For experiment [2], the target named is T1, Dual specificity mitogen-activated protein kinase kinase 4 (Homo sapiens, UniProt P45985).
T1 sequence (P45985 whole entry): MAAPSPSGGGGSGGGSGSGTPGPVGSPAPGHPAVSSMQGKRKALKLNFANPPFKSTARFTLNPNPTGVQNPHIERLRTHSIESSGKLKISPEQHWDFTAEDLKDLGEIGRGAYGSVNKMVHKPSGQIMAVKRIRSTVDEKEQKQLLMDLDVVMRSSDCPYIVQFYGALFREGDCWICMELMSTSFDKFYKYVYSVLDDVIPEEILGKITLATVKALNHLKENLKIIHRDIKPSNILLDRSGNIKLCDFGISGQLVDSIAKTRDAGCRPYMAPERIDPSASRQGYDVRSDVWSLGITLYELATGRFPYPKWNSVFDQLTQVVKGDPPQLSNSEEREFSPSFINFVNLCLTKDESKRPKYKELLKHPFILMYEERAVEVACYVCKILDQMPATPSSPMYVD

Experiment [3] has as its target Cyclin-dependent kinase 10 (Homo sapiens, UniProt Q15131).
For experiment [4], the target named is Eukaryotic peptide chain release factor GTP-binding subunit ERF3B (Homo sapiens, UniProt Q8IYD1).
In experiment [5] the target is Serine/threonine-protein kinase PLK1 (Homo sapiens, UniProt P53350).
Experiment [6] addresses Serine/threonine-protein kinase 38-like (Homo sapiens, UniProt Q9Y2H1).
Experiment [7] concerns the target ALK tyrosine kinase receptor (Homo sapiens, UniProt Q9UM73). It is filed as subcellular, K-562, COLO 205, SK-N-BE(2) and MV-4-11, Cell lysate. Conditions: read-out: Kd apparent.
Experiment [8] has as its target Serine/threonine-protein kinase 38 (Homo sapiens, UniProt Q15208).
The target in experiment [9] is Dual specificity tyrosine-phosphorylation-regulated kinase 1B (Homo sapiens, UniProt Q9Y463).
Experiment [10] concerns the target Tyrosine-protein kinase Fgr (Homo sapiens, UniProt P09769).
The target in experiment [11] is T2, Tyrosine-protein kinase Mer (Homo sapiens, UniProt Q12866).
T2 sequence (Q12866 whole entry): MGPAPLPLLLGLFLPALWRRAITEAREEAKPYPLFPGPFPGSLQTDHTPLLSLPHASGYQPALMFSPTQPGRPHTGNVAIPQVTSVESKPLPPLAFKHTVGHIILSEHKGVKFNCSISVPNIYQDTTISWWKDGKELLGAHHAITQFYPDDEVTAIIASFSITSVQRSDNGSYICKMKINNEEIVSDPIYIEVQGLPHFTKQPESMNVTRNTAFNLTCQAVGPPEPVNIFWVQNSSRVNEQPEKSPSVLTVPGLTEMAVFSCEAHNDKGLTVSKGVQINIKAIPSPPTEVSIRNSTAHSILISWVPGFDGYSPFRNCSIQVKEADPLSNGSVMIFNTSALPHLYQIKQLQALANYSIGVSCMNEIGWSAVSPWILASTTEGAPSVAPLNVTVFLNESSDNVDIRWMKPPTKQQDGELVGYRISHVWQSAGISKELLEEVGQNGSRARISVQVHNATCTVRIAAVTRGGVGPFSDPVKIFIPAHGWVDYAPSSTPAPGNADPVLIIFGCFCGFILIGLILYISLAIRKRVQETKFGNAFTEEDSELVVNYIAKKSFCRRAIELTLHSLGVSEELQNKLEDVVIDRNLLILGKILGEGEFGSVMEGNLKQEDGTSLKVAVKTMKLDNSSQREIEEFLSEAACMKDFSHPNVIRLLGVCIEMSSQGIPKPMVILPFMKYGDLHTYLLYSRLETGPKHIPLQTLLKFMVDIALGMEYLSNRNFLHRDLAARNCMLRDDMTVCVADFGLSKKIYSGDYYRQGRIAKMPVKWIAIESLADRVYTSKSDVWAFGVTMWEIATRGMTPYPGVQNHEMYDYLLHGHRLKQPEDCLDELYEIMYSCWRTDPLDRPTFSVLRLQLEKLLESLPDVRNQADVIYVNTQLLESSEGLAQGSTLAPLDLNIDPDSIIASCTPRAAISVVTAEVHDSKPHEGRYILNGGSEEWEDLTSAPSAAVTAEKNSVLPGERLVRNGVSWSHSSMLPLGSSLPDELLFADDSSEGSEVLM

Sequence of Tyrosine-protein kinase Fgr (P09769 whole entry): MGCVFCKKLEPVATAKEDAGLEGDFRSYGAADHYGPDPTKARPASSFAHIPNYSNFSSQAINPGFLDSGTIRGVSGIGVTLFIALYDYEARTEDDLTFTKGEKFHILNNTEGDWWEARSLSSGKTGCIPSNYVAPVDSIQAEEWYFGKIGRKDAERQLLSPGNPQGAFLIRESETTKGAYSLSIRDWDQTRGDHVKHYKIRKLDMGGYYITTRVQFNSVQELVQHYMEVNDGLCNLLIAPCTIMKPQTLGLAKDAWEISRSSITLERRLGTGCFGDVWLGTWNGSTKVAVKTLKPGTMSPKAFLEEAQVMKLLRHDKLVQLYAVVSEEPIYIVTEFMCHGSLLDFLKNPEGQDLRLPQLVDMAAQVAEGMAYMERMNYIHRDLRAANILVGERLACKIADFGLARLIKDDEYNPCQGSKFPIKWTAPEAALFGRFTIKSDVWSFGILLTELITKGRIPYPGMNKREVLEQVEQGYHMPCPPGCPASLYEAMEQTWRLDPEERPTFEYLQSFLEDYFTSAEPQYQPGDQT
Sequence of Serine/threonine-protein kinase PLK1 (P53350 whole entry): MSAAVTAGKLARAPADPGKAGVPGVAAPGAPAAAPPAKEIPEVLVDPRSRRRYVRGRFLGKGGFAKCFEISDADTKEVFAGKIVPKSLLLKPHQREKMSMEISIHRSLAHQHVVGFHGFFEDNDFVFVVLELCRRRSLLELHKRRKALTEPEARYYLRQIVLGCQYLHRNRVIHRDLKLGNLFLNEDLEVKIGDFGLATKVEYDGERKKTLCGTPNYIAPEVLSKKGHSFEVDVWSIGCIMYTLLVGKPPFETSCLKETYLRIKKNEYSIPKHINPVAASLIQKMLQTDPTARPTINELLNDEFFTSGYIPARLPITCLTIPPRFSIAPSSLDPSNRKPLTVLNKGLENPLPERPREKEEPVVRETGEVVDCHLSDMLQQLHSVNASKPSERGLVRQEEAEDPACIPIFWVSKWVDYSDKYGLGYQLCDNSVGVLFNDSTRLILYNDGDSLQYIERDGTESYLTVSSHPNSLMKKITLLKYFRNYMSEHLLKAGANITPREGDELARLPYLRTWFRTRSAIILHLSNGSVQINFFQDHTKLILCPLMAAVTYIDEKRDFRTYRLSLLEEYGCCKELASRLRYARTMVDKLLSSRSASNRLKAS
Sequence of ALK tyrosine kinase receptor (Q9UM73 whole entry): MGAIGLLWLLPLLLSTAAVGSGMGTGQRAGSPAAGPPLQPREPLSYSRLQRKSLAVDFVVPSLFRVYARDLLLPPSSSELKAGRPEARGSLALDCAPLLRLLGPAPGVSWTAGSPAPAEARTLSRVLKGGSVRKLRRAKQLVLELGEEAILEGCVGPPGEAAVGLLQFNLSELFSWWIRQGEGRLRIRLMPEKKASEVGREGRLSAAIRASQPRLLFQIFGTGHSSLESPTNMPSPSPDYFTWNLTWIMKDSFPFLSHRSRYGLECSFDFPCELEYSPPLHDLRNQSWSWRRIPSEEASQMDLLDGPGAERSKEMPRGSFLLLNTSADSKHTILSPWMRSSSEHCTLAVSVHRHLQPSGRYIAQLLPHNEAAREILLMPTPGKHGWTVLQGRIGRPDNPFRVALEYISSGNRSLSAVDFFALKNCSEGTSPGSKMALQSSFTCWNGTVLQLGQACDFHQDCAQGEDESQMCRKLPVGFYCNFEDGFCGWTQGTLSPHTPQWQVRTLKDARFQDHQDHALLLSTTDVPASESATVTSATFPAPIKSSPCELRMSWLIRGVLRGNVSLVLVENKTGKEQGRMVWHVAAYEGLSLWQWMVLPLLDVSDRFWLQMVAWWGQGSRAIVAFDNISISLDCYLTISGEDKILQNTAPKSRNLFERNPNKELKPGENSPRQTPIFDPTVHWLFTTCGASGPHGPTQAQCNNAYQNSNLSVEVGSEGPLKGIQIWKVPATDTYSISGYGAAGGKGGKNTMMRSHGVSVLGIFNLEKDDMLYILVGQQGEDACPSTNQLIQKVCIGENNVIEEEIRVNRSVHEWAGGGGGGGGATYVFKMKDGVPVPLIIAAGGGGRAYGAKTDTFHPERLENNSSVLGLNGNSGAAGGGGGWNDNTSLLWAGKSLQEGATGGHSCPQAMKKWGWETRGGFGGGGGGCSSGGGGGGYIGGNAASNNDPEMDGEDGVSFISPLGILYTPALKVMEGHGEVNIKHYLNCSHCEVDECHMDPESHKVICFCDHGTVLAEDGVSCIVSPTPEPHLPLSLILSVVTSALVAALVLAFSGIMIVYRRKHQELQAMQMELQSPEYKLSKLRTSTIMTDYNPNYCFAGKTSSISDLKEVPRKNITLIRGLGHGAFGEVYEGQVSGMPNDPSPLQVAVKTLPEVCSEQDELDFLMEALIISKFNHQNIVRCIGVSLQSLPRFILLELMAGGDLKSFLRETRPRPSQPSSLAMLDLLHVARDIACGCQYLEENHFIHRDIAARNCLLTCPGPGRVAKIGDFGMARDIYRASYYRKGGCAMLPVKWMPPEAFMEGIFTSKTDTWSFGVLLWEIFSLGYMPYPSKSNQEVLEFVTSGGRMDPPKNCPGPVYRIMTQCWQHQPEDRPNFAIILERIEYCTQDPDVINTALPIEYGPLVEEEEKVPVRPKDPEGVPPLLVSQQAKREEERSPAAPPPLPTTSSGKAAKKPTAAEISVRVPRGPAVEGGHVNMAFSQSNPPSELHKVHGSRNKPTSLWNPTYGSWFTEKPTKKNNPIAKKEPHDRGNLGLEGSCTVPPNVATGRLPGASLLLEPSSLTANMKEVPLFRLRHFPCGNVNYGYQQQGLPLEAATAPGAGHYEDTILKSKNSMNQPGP
Sequence of Cyclin-dependent kinase 10 (Q15131 whole entry): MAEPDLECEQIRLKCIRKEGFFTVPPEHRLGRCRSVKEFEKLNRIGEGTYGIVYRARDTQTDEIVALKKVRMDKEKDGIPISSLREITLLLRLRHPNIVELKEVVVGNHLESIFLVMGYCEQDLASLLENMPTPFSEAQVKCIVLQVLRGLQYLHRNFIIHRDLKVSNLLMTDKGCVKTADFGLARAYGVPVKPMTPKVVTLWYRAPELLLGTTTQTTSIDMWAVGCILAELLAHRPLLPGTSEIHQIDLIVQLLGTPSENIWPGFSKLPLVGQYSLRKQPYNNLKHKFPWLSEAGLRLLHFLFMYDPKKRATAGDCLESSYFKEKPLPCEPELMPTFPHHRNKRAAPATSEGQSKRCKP
Sequence of Eukaryotic peptide chain release factor GTP-binding subunit ERF3B (Q8IYD1 whole entry): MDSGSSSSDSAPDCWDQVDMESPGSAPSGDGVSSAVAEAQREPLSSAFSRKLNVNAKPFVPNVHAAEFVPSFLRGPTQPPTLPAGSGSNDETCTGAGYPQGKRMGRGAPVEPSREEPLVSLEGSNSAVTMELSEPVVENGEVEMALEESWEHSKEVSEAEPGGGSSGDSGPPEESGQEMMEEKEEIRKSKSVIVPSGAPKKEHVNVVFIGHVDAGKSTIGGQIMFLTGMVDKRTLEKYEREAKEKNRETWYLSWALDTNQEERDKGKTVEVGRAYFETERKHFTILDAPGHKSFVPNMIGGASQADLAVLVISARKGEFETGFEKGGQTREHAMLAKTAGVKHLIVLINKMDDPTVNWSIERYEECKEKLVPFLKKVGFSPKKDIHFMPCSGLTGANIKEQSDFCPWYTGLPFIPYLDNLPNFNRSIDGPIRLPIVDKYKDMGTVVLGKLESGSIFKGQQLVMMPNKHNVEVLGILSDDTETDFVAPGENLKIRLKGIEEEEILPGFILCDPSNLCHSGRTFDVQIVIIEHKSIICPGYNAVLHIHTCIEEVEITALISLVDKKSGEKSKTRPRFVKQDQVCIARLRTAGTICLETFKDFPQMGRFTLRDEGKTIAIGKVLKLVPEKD
Sequence of Serine/threonine-protein kinase 38-like (Q9Y2H1 whole entry): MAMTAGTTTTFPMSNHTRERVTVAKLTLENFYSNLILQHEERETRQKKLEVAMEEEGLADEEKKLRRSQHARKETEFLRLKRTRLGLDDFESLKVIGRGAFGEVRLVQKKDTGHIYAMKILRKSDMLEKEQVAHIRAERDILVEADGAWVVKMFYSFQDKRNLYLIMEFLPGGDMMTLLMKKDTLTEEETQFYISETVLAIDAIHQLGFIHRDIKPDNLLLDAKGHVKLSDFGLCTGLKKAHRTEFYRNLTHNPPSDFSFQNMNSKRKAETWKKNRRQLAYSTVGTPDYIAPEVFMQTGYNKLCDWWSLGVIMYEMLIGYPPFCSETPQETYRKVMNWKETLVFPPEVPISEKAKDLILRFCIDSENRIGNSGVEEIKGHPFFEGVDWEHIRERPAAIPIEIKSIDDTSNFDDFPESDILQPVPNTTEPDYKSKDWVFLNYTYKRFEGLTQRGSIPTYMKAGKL
Sequence of Dual specificity tyrosine-phosphorylation-regulated kinase 1B (Q9Y463 whole entry): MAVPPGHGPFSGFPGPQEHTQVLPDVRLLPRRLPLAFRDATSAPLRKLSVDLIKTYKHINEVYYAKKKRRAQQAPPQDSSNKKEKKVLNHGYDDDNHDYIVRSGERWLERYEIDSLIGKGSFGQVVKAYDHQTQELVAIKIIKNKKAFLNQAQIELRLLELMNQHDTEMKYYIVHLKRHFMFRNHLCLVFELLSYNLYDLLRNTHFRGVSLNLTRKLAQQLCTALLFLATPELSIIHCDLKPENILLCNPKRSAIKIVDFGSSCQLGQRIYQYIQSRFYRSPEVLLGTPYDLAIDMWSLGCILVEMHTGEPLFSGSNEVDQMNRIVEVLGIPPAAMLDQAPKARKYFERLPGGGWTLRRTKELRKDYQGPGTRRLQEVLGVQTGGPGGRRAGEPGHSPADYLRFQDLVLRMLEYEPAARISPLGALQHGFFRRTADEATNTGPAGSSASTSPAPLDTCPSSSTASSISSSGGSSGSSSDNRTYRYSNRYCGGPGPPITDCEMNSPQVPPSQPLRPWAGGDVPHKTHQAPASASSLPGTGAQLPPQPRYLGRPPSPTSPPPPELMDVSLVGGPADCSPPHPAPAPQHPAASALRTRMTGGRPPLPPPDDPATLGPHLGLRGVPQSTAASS

On to `Cc1cc(Nc2nc(N[C@@H](C)c3ncc(F)cn3)ncc2Cl)n[nH]1` [AZD-1480], for which the Kd in experiment [1], in experiment [2], in [3], in [4] and in experiment [5] was > 30 µM (inactive) throughout.
As to `Cc1ccc(C(=O)Nc2ccc(Oc3cc4cnn(C)c4cc3-c3cn[nH]c3)c(F)c2)c(=O)n1-c1ccc(F)cc1` [MERESTINIB], the Kd in [2], in experiment [6], in experiment [3] and in experiment [5] was > 30 µM (inactive) each time.
In the case of `CNC(=O)c1cc(COc2nnc(Nc3ccc(Cl)cc3)c3ccoc23)ccn1` [TELATINIB], the Kd in experiment [3] and in [7] was > 30 µM (inactive) in each case.
For the molecule `COc1cc2ncnc3c2cc1OCCCCCN(C)Cc1ccc(Br)cc1N3` [JNJ-26483327], in [8], the Kd is > 30 µM (inactive).
As to `CC1(C)CNc2cc(NC(=O)c3cccnc3NCc3ccncc3)ccc21` [MOTESANIB], the Kd in experiment [3] was > 30 µM (inactive); in experiment [4] it was 0.003 µM.
As for `CC1(COc2ccc3c(c2)ncn3-c2ccc3cccc(N4CCC(N)CC4)c3n2)COC1` [CRENOLANIB], the Kd in experiment [1], in experiment [2], in experiment [6], in experiment [3], in [4] and in experiment [5] was > 30 µM (inactive) throughout.
On to `Cc1cc(-c2cc(OC(=O)c3ccccc3)ccc2Cl)cc2nnc(Nc3ccc(OCCN4CCCC4)cc3)nc12` [TG100-801], for which the Kd in [1], in [2], in experiment [9], in [6] and in [3] was > 30 µM (inactive) in each case.
In the case of `COc1ccc(-c2ccc3ncc4c(c3c2)n(-c2ccc(N3CCNCC3)c(C(F)(F)F)c2)c(=O)n4C)cn1` [BGT-226 FREE BASE], the Kd in experiment [10] and in [5] was > 30 µM (inactive) throughout.
As for `Cc1cc(C(=O)Nc2cc(Oc3ccc4nc(NC(=O)C5CC5)cn4n3)ccc2C)n(C)n1` [TAK-593], the Kd in [5] was > 30 µM (inactive).
With `O=C(O)c1ccc2c(c1)nc(Nc1cccc(Cl)c1)c1ccncc12` [SILMITASERTIB], the Kd is > 30 µM (inactive) in [6] and 0.672 µM (active) in [5].
`CCN(CCCOc1ccc2c(Nc3cc(CC(=O)Nc4cccc(F)c4)n[nH]3)ncnc2c1)CCOP(=O)(O)O` [BARASERTIB]: the Kd in experiment [11] was > 30 µM (inactive).
With `CN(C)C/C=C/C(=O)Nc1cc2c(Nc3ccc(F)c(Cl)c3)ncnc2cc1O[C@H]1CCOC1` [AFATINIB], the Kd in experiment [4] was > 30 µM (inactive).
Turning to `O=S(=O)(c1cccc2c(O)nccc12)N1CCCNCC1` [HYDROXYFASUDIL], the Kd in experiment [1], in experiment [2], in experiment [11], in experiment [6], in experiment [3] and in experiment [4] was > 30 µM (inactive) throughout.
Turning to `O=c1[nH]c([C@@H]2CCCN2)nc2c1oc1ccc(Cl)cc12`, the Kd in experiment [6] and in experiment [8] was > 30 µM (inactive) in each case.
On to `COc1cc2ncnc(Nc3ccc(O)cc3)c2cc1OC` [WHI-P131], for which the Kd in experiment [2], in experiment [8], in experiment [3], in [5] and in experiment [7] was > 30 µM (inactive) throughout.
As for `COc1cccc(Nc2ncnn3ccc(CN4CC[C@@H](N)[C@H](O)C4)c23)c1` [BMS-690514], the Kd in [2] and in experiment [6] was > 30 µM (inactive) in each case.
For `S=C(NCc1ccc2c(c1)OCO2)N1CCN(c2ncnc3c2oc2ccccc23)CC1` [AMUVATINIB], the Kd in [2], in experiment [11], in experiment [3] and in experiment [5] was > 30 µM (inactive) in each case.
On to `Cn1cc(-c2[nH]c3cc(NC(=O)[C@H](N)C4CCCCC4)cc4c3c2C=NNC4=O)cn1`, for which the Kd in [11] was 0.018 µM; in experiment [6], > 30 µM (inactive); in [10], > 30 µM (inactive); in experiment [3], > 30 µM (inactive); in experiment [5], > 30 µM (inactive); in [7] it was > 30 µM (inactive).
`COCCN1CCN(Cc2ccc(-c3n[nH]c4c3C(=O)c3c(NC(=O)NN5CCOCC5)cccc3-4)cc2)CC1` [RGB-286638]: the Kd in experiment [11] and in experiment [9] was > 30 µM (inactive) each time.
Consider `C[C@@H]1COC(Nc2ccc3ncnc(Nc4ccc(OCc5nccs5)c(Cl)c4)c3c2)=N1` [VARLITINIB], for which the Kd in experiment [2], in experiment [11], in experiment [6], in experiment [8] and in experiment [7] was > 30 µM (inactive) throughout.
Regarding `O=C(NC[C@H](O)CO)c1ccncc1Nc1ccc(I)cc1F` [PIMASERTIB], the Kd in experiment [1], in experiment [2], in experiment [10], in [3], in [4] and in [5] was > 30 µM (inactive) throughout. In addition, the Kd in experiment [7] was > 30 µM (inactive).
On to `Cn1c(=O)n(-c2ccc(C(C)(C)C#N)cc2)c2c3cc(-c4cnc5ccccc5c4)ccc3ncc21` [DACTOLISIB], for which the Kd in [6], in [8] and in experiment [4] was > 30 µM (inactive) each time.
With `Cc1c(NC(=O)OC[C@@H]2COCCN2)cn2ncnc(Nc3ccc4c(cnn4Cc4cccc(F)c4)c3)c12` [AC-480], in experiment [5], the Kd is > 30 µM (inactive).
For `COc1cc(Nc2ncc(F)c(Nc3ccc4c(n3)N(COP(=O)(O)O)C(=O)C(C)(C)O4)n2)cc(OC)c1OC` [FOSTAMATINIB], the Kd in experiment [1], in experiment [2], in [9], in experiment [6] and in experiment [5] was > 30 µM (inactive) in each case.
With `CC(C)CC(=O)Nc1[nH]nc2c1CN(C(=O)C1CCN(C)CC1)C2(C)C` [PHA-793887], the Kd in [10] and in [5] was > 30 µM (inactive) throughout.
Consider `COc1cccc2cc(-c3nc([C@H]4CC[C@H](C(=O)O)CC4)n4ncnc(N)c34)[nH]c12` [OSI-027], for which the Kd in experiment [4] was > 30 µM (inactive).
As for `C[C@]1(O)C[C@@H](c2nc(-c3ccc4ccc(-c5ccccc5)nc4c3)c3c(N)nccn32)C1` [LINSITINIB], the Kd in experiment [2], in experiment [11] and in experiment [3] was > 30 µM (inactive) in each case.
`COc1cc2ncnc(Nc3ccc(F)c(Cl)c3)c2cc1NC(=O)/C=C/CN1CCCCC1` [DACOMITINIB ANHYDROUS]: the Kd in experiment [2] and in experiment [6] was > 30 µM (inactive) throughout.
For `CC[C@@](C)(Nc1ccnc(-c2c[nH]c3ncccc23)n1)C(=O)NCC(F)(F)F` [DECERNOTINIB], the Kd in [8] was > 30 µM (inactive).
`O=C(NOC[C@H](O)CO)c1ccc(F)c(F)c1Nc1ccc(I)cc1F` [MIRDAMETINIB]: the Kd in [1], in experiment [2], in [11], in [10] and in [5] was > 30 µM (inactive) throughout.
